# Measured values from patent US10660336B2 (priority 2014, dated 2020).
# Read-outs that look alike come from different tables or passages of the source.
# Key:
# [1] = test system: pepper mottle virus (PepMoV); set-up: species or system Capsicum anuum L.; settings: in vivo
# [2] = test system: pepper mottle virus (PepMoV); set-up: species or system Nicotiana benthamiana; settings: in vivo
# [3] = test system: tobacco mosaic virus; assay: Half leaf method, anti-viral activity against tobacco mosaic virus (local lesion count); type: in vivo; settings: concentration of 5 ppm or above; Nicotiana tabacum cv. Xanthi nc half leaf; 3 days after inoculation
# Procedure: A half leaf method was performed to determine an anti-viral activity against tobacco mosaic virus, which was provided from the plant virus genebank (PVGB), Seoul women's university, of the compounds which was determined to have the anti-viral activity against the pepper mottle virus in Example 3. The half leaf method utilizes features of producing black spots due to local lesions around the infected part by tobacco mosaic virus in Nicotiana tabacum cv. Xanthi nc which is a local lesion host. Top 3 leaves and 4 leaves of 7-8 normal leaves of the local lesion host were taken and carborundum was evenly sprayed throughout the leaves. A compound 1 (Trichodermin) sample at test concentrations dissolved in DMSO and the tobacco mosaic virus solution were mixed. Right half leaf of the leaf of the Nicotiana tabacum cv. Xanthi nc was inoculated with this mixture and the other left half leaf was inoculated with tobacco mosaic virus solution (control) using cotton swabs. After petiole of the leaf of the Nicotiana tabacum cv. […] After 3 days of inoculation, the number of local lesions was counted and 100-400 of lesions of […] control half leaf was only applied. Activity rate using the number of lesions was calculated by the following equation. […]
smiles,measurement,setting,value
CC(=O)O[C@@H]1C[C@H]2O[C@@H]3C=C(C)CC[C@]3(C)[C@]1(C)[C@]21CO1 [Trichodermin],"spreading rate of the pepper mottle virus (green fluorescent protein in upper leaves under UV, viral RNA and coat protein)",[1],inhibits spreading rate of the pepper mottle virus
same,"spreading rate of the pepper mottle virus (green fluorescent protein in upper leaves under UV, viral RNA and coat protein)",[2],inhibits spreading rate of the pepper mottle virus
same,anti-viral activity against the tobacco mosaic virus (control rate from number of local lesions),[3],≥ 97%
